According to paper PMC7954794, “Protein context shapes the specificity of SH3 domain-mediated interactions in vivo” (Nature Communications, 2021):

Assays:
Format in all cases: cell-based, Saccharomyces cerevisiae
[1] = system: PPIs identified as affected by the SH3 domain deletions; test: Liquid DHFR-PCA low-throughput validation of PPIs affected by SH3 deletion (Fig. S1D-E); conditions: Deletedscore/WTscore
Procedure: Liquid DHFR-PCA low-throughput experiments were performed to validate the PPIs identified as affected by the SH3 domain deletions in the high-throughput solid DHFR-PCA screen (256 PPIs weaker or lost and 116 PPIs stronger or gained following domain deletions). Mating and the diploid selection were performed as described for the large-scale experiment, with the exception that the plates were in 384 formats. Following the second diploid selection, diploid cells were inoculated in a 96 v-shaped well plate using a robotically manipulated 96 pin tool in a synthetic complete medium with MSG at pH 6.0 with NAT and HPH. After 48 h of growth, optical density (OD) was read using a TECAN Infinite F200 Pro, and dilutions to 1 OD in sterile nanopure water were prepared. Cells were then diluted to 0.1 OD by combining 25 µl of cell suspension at OD = 1 and 225 µl of PCA selection media without agar in a 96-wells plate. Plates were incubated at 30 °C in a TECAN Infinite M Nano and OD was monitored each 15 min for 72 h.

[2] = system: growth of yeast strains under 51 stress conditions; test: Growth assays in 51 stress conditions (Fig. 1E-F, S2D, S5B); design: key to Growth (Fig. S2D) / growth of ABP1 SH3-swapped strains in stress condition: log2 colony size, average of median per strain (growth score); conditions: FigS2D
Procedure: All WT, SH3-deleted, KO (except for CDC25 which is the only essential SH3-containing gene in yeast), ABP1 SH3-swapped, and SLA1 SH3-shuffled strains were grown on omnitrays in 1536 formats and robotically manipulated with a pin tool (the DHFR F[1,2] bait strains were used except for the KO strains). Each strain was randomly positioned in 6 replicates per plate and two plates per condition were performed, for 12 replicates per strain in total. A border of two rows and two columns of WT strains (BY4741) around the plate was used to remove border effects. Strains were grown on YPD media for two days at 30 °C. They were then replicated on 51 different media that are described in the Supplementary Table 3 and were incubated at 37 °C in a spImager custom platform with images acquired every two hours for four days. The colony sizes from plate pictures were also measured with the R package “Gitter” and the output was manually inspected. Positions with an abnormality in colony circularity were removed. The colony sizes after 74 h of incubation at 37 °C were log2 transformed and used for the analyses. First, the differences between the two plate replicates were corrected to remove plate effects. The median colony size was calculated for each strain per plate. Strains with a difference in their median colony size of more than two between the two plate replicates were removed. Finally, the average of the median colony size was calculated for each strain per condition (growth score).

ABP1 = test: DHFR-PCA on solid medium, bait ABP1 (Fig. 1B); conditions: bait ABP1, label = prey; 2-4 replicates
Source text: (§1) Supplement 41467_2021_21873_MOESM8_ESM.xlsx, sheet "Fig1B" | column: medsize; medrep; Ratio; Score

BBC1 = test: DHFR-PCA on solid medium, bait BBC1 (Fig. 1B); conditions: bait BBC1, label = prey; 2-4 replicates
Source text: as §1

BEM1-1 = test: DHFR-PCA on solid medium, bait BEM1-1 (Fig. 1B); conditions: bait BEM1-1, label = prey; 2-8 replicates
Source text: as §1

BEM1-2 = test: DHFR-PCA on solid medium, bait BEM1-2 (Fig. 1B); conditions: bait BEM1-2, label = prey; 2-8 replicates
Source text: as §1

BOI1 = test: DHFR-PCA on solid medium, bait BOI1 (Fig. 1B); conditions: bait BOI1, label = prey
Source text: as §1

BOI2 = test: DHFR-PCA on solid medium, bait BOI2 (Fig. 1B); conditions: bait BOI2, label = prey; 3-8 replicates
Source text: as §1

BUD14 = test: DHFR-PCA on solid medium, bait BUD14 (Fig. 1B); conditions: bait BUD14, label = prey; 4 replicates
Source text: as §1

BZZ1-1 = test: DHFR-PCA on solid medium, bait BZZ1-1 (Fig. 1B); conditions: bait BZZ1-1, label = prey; 4 replicates
Source text: Supplement 41467_2021_21873_MOESM8_ESM.xlsx, sheet "Fig1B" | column: medsize; medrep; Score

## RVS167
[1]; prey YLR144C_1
  Ratio: 0.9983
[1]; prey YLR166C_1
  Ratio: 0.4047
[1]; prey YLR314C_1
  Ratio: 1.009
[1]; prey YLR332W_1
  Ratio: 0.5527
[1]; prey YML016C_1
  Ratio: 0.7209
[1]; prey YMR192W_1
  Ratio: 0.4415
[1]; prey YNL084C_1
  Ratio: 0.8207
[1]; prey YNL106C_1
  Ratio: 0.4642
[1]; prey YNL255C_1
  Ratio: 0.9975
[1]; prey YPL246C_1
  Ratio: 0.6027
[1]; prey YPL249C_1
  Ratio: 0.4423
[1]; prey YPR055W_1
  Ratio: 0.5489
[2]; Bathophenanthroline.0.1uM
  growth of ABP1 SH3-swapped strains in stress condition: 10.8266
[2]; Bathophenanthroline.10uM
  growth of ABP1 SH3-swapped strains in stress condition: 10.6504
[2]; Bathophenanthroline.1uM
  growth of ABP1 SH3-swapped strains in stress condition: 10.7571
[2]; CaCl2.100mM
  growth of ABP1 SH3-swapped strains in stress condition: 10.7957
[2]; CaCl2.250mM
  growth of ABP1 SH3-swapped strains in stress condition: 10.7147
[2]; CaCl2.500mM
  growth of ABP1 SH3-swapped strains in stress condition: 10.2304
[2]; Caffein.10mM
  growth of ABP1 SH3-swapped strains in stress condition: 10.0011
[2]; Caffein.2mM
  growth of ABP1 SH3-swapped strains in stress condition: 10.9656
[2]; CdCl2.100uM
  growth of ABP1 SH3-swapped strains in stress condition: 9.478
[2]; CdCl2.10uM
  growth of ABP1 SH3-swapped strains in stress condition: 10.8675
[2]; CdCl2.50uM
  growth of ABP1 SH3-swapped strains in stress condition: 10.0052
[2]; CuSO4.1mM
  growth of ABP1 SH3-swapped strains in stress condition: 10.4401
[2]; CuSO4.5mM
  growth of ABP1 SH3-swapped strains in stress condition: 7.809
[2]; Cycloheximide.0.05.uM
  growth of ABP1 SH3-swapped strains in stress condition: 11.0732
[2]; Cycloheximide.0.2.uM
  growth of ABP1 SH3-swapped strains in stress condition: 10.5897
[2]; Cycloheximide.0.5.uM
  growth of ABP1 SH3-swapped strains in stress condition: 10.0755
[2]; DMSO.2.
  growth of ABP1 SH3-swapped strains in stress condition: 10.9922
[2]; DMSO.6.
  growth of ABP1 SH3-swapped strains in stress condition: 9.827
[2]; DMSO.8.
  growth of ABP1 SH3-swapped strains in stress condition: 9.078
[2]; Ethanol.2.
  growth of ABP1 SH3-swapped strains in stress condition: 10.7562
[2]; Ethanol.6.
  growth of ABP1 SH3-swapped strains in stress condition: 10.3054
[2]; Ethanol.8.
  growth of ABP1 SH3-swapped strains in stress condition: 10.1073
[2]; Galactose.2.
  growth of ABP1 SH3-swapped strains in stress condition: 10.7616
[2]; Glycerol.2.
  growth of ABP1 SH3-swapped strains in stress condition: 9.801
[2]; Hydroxyurea.25mM
  growth of ABP1 SH3-swapped strains in stress condition: 10.7452
[2]; Hygromycin.190uM
  growth of ABP1 SH3-swapped strains in stress condition: 10.9449
[2]; Hygromycin.19uM
  growth of ABP1 SH3-swapped strains in stress condition: 10.972
[2]; Hygromycin.95uM
  growth of ABP1 SH3-swapped strains in stress condition: 11.0099
[2]; MMS.0.004.
  growth of ABP1 SH3-swapped strains in stress condition: 10.8938
[2]; MMS.0.02.
  growth of ABP1 SH3-swapped strains in stress condition: 10.6752
[2]; MMS.0.04.
  growth of ABP1 SH3-swapped strains in stress condition: 9.941
[2]; Menadione.100uM
  growth of ABP1 SH3-swapped strains in stress condition: 10.5548
[2]; Menadione.200uM
  growth of ABP1 SH3-swapped strains in stress condition: 10.4212
[2]; Menadione.50uM
  growth of ABP1 SH3-swapped strains in stress condition: 10.7634
[2]; NaCl.0.25M
  growth of ABP1 SH3-swapped strains in stress condition: 10.7655
[2]; NaCl.1M
  growth of ABP1 SH3-swapped strains in stress condition: 9.597
[2]; Nitroquinoline.10uM
  growth of ABP1 SH3-swapped strains in stress condition: 10.6917
[2]; Nitroquinoline.50uM
  growth of ABP1 SH3-swapped strains in stress condition: 10.5789
[2]; Nystatin.0.01uM
  growth of ABP1 SH3-swapped strains in stress condition: 10.9774
[2]; Nystatin.0.1uM
  growth of ABP1 SH3-swapped strains in stress condition: 10.9878
[2]; Raffinose.2.
  growth of ABP1 SH3-swapped strains in stress condition: 11.0045
[2]; Rapamycin.10nM
  growth of ABP1 SH3-swapped strains in stress condition: 9.889
[2]; Rapamycin.50nM
  growth of ABP1 SH3-swapped strains in stress condition: 9.373
[2]; SC.pH3
  growth of ABP1 SH3-swapped strains in stress condition: 10.3957
[2]; SC.pH6
  growth of ABP1 SH3-swapped strains in stress condition: 10.965
[2]; SDS.0.01.
  growth of ABP1 SH3-swapped strains in stress condition: 10.9519
[2]; SDS.0.02.
  growth of ABP1 SH3-swapped strains in stress condition: 11.0022
[2]; SDS.0.05.
  growth of ABP1 SH3-swapped strains in stress condition: 10.8383
[2]; Sorbitol.10mM
  growth of ABP1 SH3-swapped strains in stress condition: 10.9602
[2]; Sorbitol.1mM
  growth of ABP1 SH3-swapped strains in stress condition: 11.0196
[2]; Sorbitol.5mM
  growth of ABP1 SH3-swapped strains in stress condition: 10.9136

## YAL005C
ABP1
  medrep (log2 median colony size normalized to plate background, PCA score): 5.43
BBC1
  medrep (log2 median colony size normalized to plate background, PCA score): 5.353
BEM1-1
  medrep (log2 median colony size normalized to plate background, PCA score): 4.321
BEM1-2
  medrep (log2 median colony size normalized to plate background, PCA score): 4.321
BOI1; 3-8 replicates
  medrep (log2 median colony size normalized to plate background, PCA score): 3.321
BOI1; only significant differences showed, PPIs completely lost have a ratio of 0.1 and the gained PPIs 2.5
  Ratio (SH3-deleted/WT medrep): 1.412
BOI2
  medrep (log2 median colony size normalized to plate background, PCA score): 4.382
BUD14
  medrep (log2 median colony size normalized to plate background, PCA score): 4.297
BZZ1-1
  medrep (log2 median colony size normalized to plate background, PCA score): 4.381
